One test has as its target T1, Complex V (Homo sapiens, UniProt P00846+P05496+P06576+P25705).
T1 construct: tissue Analytical Biological Services, Inc; host or cells: human heart ventricle mitochondria (A10, A12); MRC5, Rho0-MRC5 and GM00028 fibroblasts (A12); normal and Rho0 human fibroblast mitochondria (A19)
Put plainly: Complex V activity dipstick. In kind it is biochemical. Particulars: normal fibroblast Complex V (FIG. 30).

Test [1] has as its system human mitochondrial F1/F0 ATPase (Complex V). Description: ATPase activity of immunocaptured F1/F0 ATPase, 96-well. Type of test: biochemical. The method, then:
Solubilization. Samples were thawed and placed in 25 mM HEPES pH 7.5 (to dissociate F1F0/IF1 interactions) or 10 mM […] (Anatrace) pH 6.5 (to retain F1F0/IF1 interactions), containing 0.4% (w/v) […], and the protease inhibitors leupeptin (0.5 μg/ml), pepstatin (0.5 μg/ml) and PMSF (1 mM). Mitochondria were solubilized at 5 mg/ml and whole cells were solubilized at 2×10^7 cells/ml. Samples were mixed well and then kept on ice for 30 minutes with occasional agitation. Insoluble material was then removed by centrifugation at 16,000×g for 20 minutes at 4° C.
Immunocapture. Assays were run in 96-well plates (Falcon Probind™) using 100 μl/well. […] To control for non-specific adsorption of ATPase, a non-specific mouse monoclonal antibody was used as a null capture mAb. Wells were then loaded with solubilized test samples diluted in TBS with 2.5% BSA, incubated for 2 hours at room temperature and then washed 4 times with TBS.
ATPase activity. ATPase reaction buffer (25 mM HEPES pH 7.5 or 10 mM MOPS pH 6.5, with 25 mM KCl, 5 mM MgCl2, 5 mM KCN and 2 mM ATP) was added at 100 μl/well and incubated for 3 hours at 37° C. The reaction was stopped and free Pi generated by ATP hydrolysis was detected essentially as described by Walker et al. (Meth. Enzymol., 260: 163-190, 1995) by addition of 0.5% ammonium molybendate in 0.7 M H2SO4 (42 μl/well) followed by 10% ascorbic acid (4 μl/well). After incubation for 30 minutes at room temperature to allow color development, absorbance was measured at 690 nm.
IF1 Stripping Conditions. IF1 was dissociated from previously immunocaptured IF1/F1F0 complexes by exposure to IF1 stripping buffer (30 mM Tris-sulfate pH 8, 250 mM KCl, 2 mM EDTA, 75 mM sucrose) for 30 minutes at 37° C. (Van Raaij et al., Biochem. 35: 15618-15625, 1996). The wells were then washed with either a pH 7.5 wash buffer (TBS) or a pH 6.5 wash buffer (10 mM MOPS pH 6.5, 150 mM NaCl and 1 mM MgCl2), and ATPase activity measured at either pH 7.5 or pH 6.5 as described above.
IF1 Addition Conditions. Recombinant human IF1 was obtained by PCR-based amplification of the appropriate gene from a human heart CDNA library (Clontech), cloning into pET15b (Novagen), transformation of E. coli and overexpression and purification of the His-tagged protein on a Ni column by standard protocols (Novagen). Isolated protein was diluted in pH 6.5 wash buffer (as described above) containing 1 mM ATP and incubated with previously immunocaptured F1F0. The wells were then washed with pH 6.5 wash buffer and ATPase activity measured at pH 6.5 as described above.

For the molecule `CC[C@H]1/C=C/C=C/C[C@@H](C)[C@H](O)[C@@](C)(O)C(=O)[C@@H](C)[C@H](O)[C@@H](C)C(=O)[C@@H](C)[C@H](O)[C@@H](C)/C=C/C(=O)O[C@@H]2[C@H](C)[C@H](CC1)O[C@]1(CC[C@H](C)[C@H](C[C@@H](C)O)O1)[C@H]2C` [oligomycin], the “effect on Complex V activity dipstick signal” value at Complex V was “reduced signal”. Further, the “oligomycin sensitivity of F1/F0 ATPase immunocaptured from Rho0 cell mitochondria” value in test [1] (Rho0 fibroblasts, 1.5 μg/ml oligomycin (FIG. 8)) is listed as “oligomycin insensitive”. In test [1] (cultured fibroblast extract, 1.5 μg/ml oligomycin (FIG. 7B)), the “oligomycin sensitivity of immunocaptured enzyme” value is reported as “more than 90%”. Further, the “inhibition of ATPase activity of immunocaptured human F1/F0 ATPase” value in test [1] (human heart mitochondria, 1.5 μg/ml oligomycin (FIG. 5)) is recorded as “more than 90%”. For the same molecule, the “inhibition of captured F1/F0 ATPase” value was “could not be inhibited” in test [1] (mAb 12F4AD8AF8 directly adsorbed to the plate) and “completely inhibited” in test [1] (mAb 12F4AD8AF8 oriented on a layer of goat-anti-mouse IgG).

The record behind these values is patent publication US20050153381A1, “Immunocapture of mitochondrial protein complexes” (priority 2002, published 2005).
